pEC50: −log10 of the molar value. Several values for one entry are separate records, joined by “and”; a condition that tells them apart may be missing. Identical values can stand only once.
Legend:
Assay type in all cases: cell-based, Cryptosporidium parvum
C. parvum [1] = settings: compound at EC90; for Invasion Assay: Mean % Inhibition (parasites), Average: average of replicates; for Invasion Assay: Mean % Inhibition (parasites), Replicate 1a: single biological replicate 1; for Invasion Assay: Mean % Inhibition (parasites), Replicate 2a: single biological replicate 2; for Invasion Assay: Mean % Inhibition (parasites), Replicate 3a: single biological replicate 3; for Invasion Assay: Mean % Inhibition (parasites), Replicate 4a: single biological replicate 4
Procedure: The first step in infection is host cell invasion, which involves a complex process encompassing oocyst excystation, parasite motility, adhesion, and parasitophorous vacuole formation (Fig. 2a). Our strategy to assay for compounds affecting invasion was simply to expose C. parvum to compounds immediately after triggering excystation and throughout the invasion process, and then enumerate the parasite vacuoles after 3 h, prior to allowing the parasites to replicate (summarized in Fig. 2b).
Fig. 2 Invasion Assay. a Overview of life cycle stage investigated during the invasion assay. Representative TEM images of a C. parvum oocyst and HCT-8 cell shortly after infection (Scale bar = 500 nm). b Schematic of experimental design. […] Each point represents the mean and SD of at least two biological replicates with four technical replicates per experiment.
C. parvum invasion inhibition was measured by modifying the 48 h growth inhibition assay described above. […] In parallel, Iowa strain oocysts were excysted. […] Assay plates were incubated at 37 °C and 5% CO2 for 3 h.

C. parvum [2] = experiment: DNA replication assay (EdU incorporation); settings: compound at EC90; for DNA Synthesis Assay: Mean % Inhibition of EdU-labeling (normalized to parasite numbers), Average: average of replicates; for DNA Synthesis Assay: Mean % Inhibition of EdU-labeling (normalized to parasite numbers), Replicate 1: single replicate 1; for DNA Synthesis Assay: Mean % Inhibition of EdU-labeling (normalized to parasite numbers), Replicate 2: single replicate 2; for DNA Synthesis Assay: Mean % Inhibition of EdU-labeling (normalized to parasite numbers), Replicate 3: single replicate 3
Text: Following cell invasion, Cryptosporidium trophozoites grow and multiply to give rise to multinucleated type I meronts (Fig. 3a). The thymidine analog 5-ethynyl-2′-deoxyuridine (EdU) is efficiently incorporated into newly synthesized DNA, and can be detected using click chemistry. We used EdU to measure parasite intracellular DNA replication, as a surrogate for the more complex phenotype of intracellular growth and division. The approach for differentially labeling newly synthesized parasite DNA compared to host cell DNA was to take advantage of the fact that C. parvum replicates more quickly than the nearly confluent host cells. Thus, by adding EdU shortly before egress, it was possible to preferentially label replicating parasites (Fig. 3b, c). DNA staining with Hoechst labeled all of the host and parasite DNA, making it challenging to visualize and quantify parasite DNA. A simple DNA stain would also not distinguish pre-existing DNA from newly synthesized DNA (Fig. 3c). In contrast, EdU labeling only occurred with incorporation into newly synthesized DNA. Incorporated EdU was then easily stained for immunofluorescence and labeled parasites were quantified using high-content microscopy and an NIH ImageJ macro (Fig. 3c, DMSO condition). The […] hydroxyurea (10 mM), a known inhibitor of DNA replication, was used as a positive control for assay validation. […] Compounds with activity in this assay cannot be concluded to specifically target DNA replication, which is a complex phenotype.
Confluent HCT-8 cell monolayers in glass bottom plates were infected with C. parvum, and compounds were added at EC90 following invasion. At 9 h post-infection, 10 µM EdU was added, followed by incubation for another 2 h, and then washing, fixing, and staining for microscopy. […] 40 × dry objective (NA = 0.7); scale = 5 µm. Arrows indicate selected parasites with EdU-labeled DNA. d Quantification of EdU incorporation. […] Data are mean and SD of 2–5 biological replicates.
After incubation of cells with EdU for 2 h, cells were washed 3 times with PBS-D-gal and then fixed with PBS containing 4% PFA. Cells were then permeabilized and stained for EdU using the Click-iT® assay kit (Thermo Fisher Scientific, catalog# C10340) as per the manufacturer’s instructions. Cells were then imaged by focusing on parasites (note that the host cell nuclei are in a different focal plane) using a 40 × dry objective (0.7 NA) and EdU, and lectin numbers quantified using ImageJ software and the custom macro in Supplementary Method 1.

[3] = system: C. parvum DMC1 expression; experiment: Sexual differentiation assay (DMC1 expression); settings: for Asexual to sexual differentiation: Mean % DMC1 inhibition (normalized to host nuclei), Average: average of replicates; for Asexual to sexual differentiation: Mean % DMC1 inhibition (normalized to host nuclei), Replicate 1a: single replicate 1; for Asexual to sexual differentiation: Mean % DMC1 inhibition (normalized to host nuclei), Replicate 2a: single replicate 2; for 48 - 72 h DMC1 (asexual to sexual conversion): Mean % DMC1 inhibition (normalized to host nuclei): replicates 1-2
Text: We utilized DMC1 as a marker of C. parvum sexual development, and used the anti-DMC1 monoclonal antibody to develop a moderate-throughput high-content microscopy assay for characterizing anticryptosporidial compounds (Fig. 6a). […] Therefore, in order to enable numerical comparison of the ability of compounds to block sexual development with moderate throughput, we adopted a strategy of reporting the percent inhibition of DMC1 expression by the previously determined EC90 of each compound in the standard asexual development assay (Fig. 6c and Supplementary Table 2).
Fig. 6 Assay to measure asexual-to-sexual-stage conversion. a Schematic of the experimental approach. […] For b and c the mean and SD combined from at least two biological replicates with four technical replicates per experiment are shown. […] At given time points post-infection, infected cells were washed 3 times with PBS containing 111 mM of D-galactose, fixed for 15 min at room temperature with 4% paraformaldehyde in PBS, and permeabilized with 0.25% triton X-100 in PBS for 10 min at 37 °C. Cells were then washed 3 times with PBS and blocked at least overnight at 4 °C with 1% BSA in PBS (blocking buffer). Cells were stained with monoclonal antibody (1H10G7), either neat culture supernatant or 12.8 µg/mL of purified IgG in blocking buffer for 1 h at 37 °C, followed by 2 washes with PBS. Cells were then co-stained with a 1:500 dilution (4 µg/mL) of Alexa Fluor 568 goat anti-mouse IgG (Invitrogen, catalog# A-11004) and 1.33 µg/mL fluorescein-labeled Vicia villosa lectin (Vector Laboratories, catalog# FL-1231) diluted in blocking buffer for 1 h at 37 °C. Stains were then removed and 0.09 mM Hoechst 33258 (AnaSpec, catalog# AS-83219) also diluted in blocking buffer was added for another 15 min at 37 °C, followed by 2 PBS washes and imaging on a Nikon Eclipse Ti2000 epifluorescence microscope run with NIS-Elements Advanced Research software (Nikon, USA) and equipped with an EXi blue fluorescent microscopy camera (QImaging, Canada). For enumerating parasites, tiled 2 × 2 images with 15% overlapping edges were taken using a 40 × dry objective (0.7 NA), and for finer details, Z stack images were acquired using a 60 × oil objective (1.4 NA). Lectin positive cells in focus were first counted, followed by DMC1.
For compound dose-response studies, the same assay was performed in 384-well plates and imaged using a 20 × dry objective (NA = 0.45). Tiled 4 × 4 to 6 × 6 images were taken. Images were analyzed using ImageJ software and the custom macro provided in Supplementary Method 2.

[4] = compound at asexual EC90, 48-72 h
[5] = yes/no grouping by phenotypic assay result

Row | Compound | Invasion Assay: Mean % Inhibition (parasites), Average (C. parvum [1]) | Invasion Assay: Mean % Inhibition (parasites), Replicate 1a (C. parvum [1]) | Invasion Assay: Mean % Inhibition (parasites), Replicate 2a (C. parvum [1]) | DNA Synthesis Assay: Mean % Inhibition of EdU-labeling (normalized to parasite numbers), Average (C. parvum [2]) | DNA Synthesis Assay: Mean % Inhibition of EdU-labeling (normalized to parasite numbers), Replicate 1 (C. parvum [2]) | DNA Synthesis Assay: Mean % Inhibition of EdU-labeling (normalized to parasite numbers), Replicate 2 (C. parvum [2]) | DNA Synthesis Assay: Mean % Inhibition of EdU-labeling (normalized to parasite numbers), Replicate 3 (C. parvum [2]) | Asexual to sexual differentiation: Mean % DMC1 inhibition (normalized to host nuclei), Average [3, 4] | Asexual to sexual differentiation: Mean % DMC1 inhibition (normalized to host nuclei), Replicate 1a [3, 4] | Asexual to sexual differentiation: Mean % DMC1 inhibition (normalized to host nuclei), Replicate 2a [3, 4] | Invasion Assay: Mean % Inhibition (parasites), Replicate 3a (C. parvum [1]) | Invasion Assay: Mean % Inhibition (parasites), Replicate 4a (C. parvum [1]) | other results
1 | CC(C)c1c(C(=O)Nc2ccccc2)c(-c2ccccc2)c(-c2ccc(F)cc2)n1CC[C@@H](O)C[C@@H](O)CC(=O)O [Atorvastatin] | -38.43% | -51% | -26% | -4.60% | -2.45% | -19.78% | 8.45% | 36.34% | 55.77% | 16.91% | – | – | –
2 | CSc1ccccc1C(=O)Nc1nc(-c2ccccn2)cs1 [MMV001246] | -7.41% | -15% | 0.521% | 72.11% | 57.69% | 70.62% | 88.02% | 45.66% | 48.08% | 43.24% | – | – | –
3 | CN(C)S(=O)(=O)c1ccc(C(=O)N2CCN(c3ccc4nncn4n3)CC2)cc1 [D-44] | -11.48% | -25% | -14% | 12.07% | 29.16% | 10.90% | -3.84% | 74.35% | 86.32% | 62.37% | 2% | -9% | –
4 | c1ccc(CNc2nc(Nc3ccccc3)nc3ccccc23)cc1 [B-1] | 56.43% | 55% | 63% | -31.43% | -48.95% | -39.64% | -5.71% | 18.08% | 32.96% | -3.57% | 42% | 66% | Sporozoite invasion (C. parvum [1]; [5]): yes; DNA synthesis (C. parvum [2]; [5]): no; 48 - 72 h DMC1 (asexual to sexual conversion): Mean % DMC1 inhibition (normalized to host nuclei) ([3]; B-1 at log[MMV006169] (µM) 0.22): -6.54% and 4.81%; 48 - 72 h DMC1 (asexual to sexual conversion): Mean % DMC1 inhibition (normalized to host nuclei) ([3]; B-1 at log[MMV006169] (µM) 0.52): -9.41% and 15.73%; 48 - 72 h DMC1 (asexual to sexual conversion): Mean % DMC1 inhibition (normalized to host nuclei) ([3]; B-1 at log[MMV006169] (µM) 0.70): -14.15% and 22.48%; 48 - 72 h DMC1 (asexual to sexual conversion): Mean % DMC1 inhibition (normalized to host nuclei) ([3]; B-1 at log[MMV006169] (µM) 1.00): 25.47% and 51.27%; 48 - 72 h DMC1 (asexual to sexual conversion): Mean % DMC1 inhibition (normalized to host nuclei) ([3]; B-1 at log[MMV006169] (µM) -0.25): 2.94% and -1.61%; 48 - 72 h DMC1 (asexual to sexual conversion): Mean % DMC1 inhibition (normalized to host nuclei) ([3]; B-1 at log[MMV006169] (µM) -0.73): 13.51% and -3.18%; 48 - 72 h DMC1 (asexual to sexual conversion): Mean % DMC1 inhibition (normalized to host nuclei) ([3]; B-1 at log[MMV006169] (µM) -1.21): 14.75% and -24.05%; 48 - 72 h DMC1 (asexual to sexual conversion): Mean % DMC1 inhibition (normalized to host nuclei) ([3]; B-1 at log[MMV006169] (µM) -1.69): 19.37% and -12.74%; 48 - 72 h DMC1 (asexual to sexual conversion): Mean % DMC1 inhibition (normalized to host nuclei) ([3]; B-1 at log[MMV006169] (µM) -2.16): 9.35% and -23.05%; activity in the DMC1 (sexual development) assay relative to asexual assay ([3]; compound added at 48 h, read at 72 h, result in words): less potent when used during the sexual phases of development; Asexual to sexual differentiation: Mean % DMC1 inhibition (normalized to host nuclei), Replicate 3a ([3]; compound at asexual EC90, 48-72 h, single replicate 3): 17.22%; Asexual to sexual differentiation: Mean % DMC1 inhibition (normalized to host nuclei), Replicate 4a ([3]; compound at asexual EC90, 48-72 h, single replicate 4): 25.70%; pEC50 ([3]; inhibition of DMC1 expression from 48 to 72 h, range in brackets, read-out: 48 − 72 h DMC1 (asexual to sexual conversion): EC50): 4.96

From article PMC6478823, “A suite of phenotypic assays to ensure pipeline diversity when prioritizing drug-like Cryptosporidium growth inhibitors” (Nature Communications, 2019)
